{"source": "patent US20080131511A1", "about": "“Pharmaceutical Composition for Treatment of Tear and Salivary Fluid Drying” (Astellas Pharma, Inc., priority 2004, published 2008)", "format_in_all_cases": "in vivo, mouse (male Balb/c)", "key": {"[1]": {"system": "sweat gland", "experiment": "Sweating (activated sweat glands, AUC) during subcutaneous continuous administration (osmotic pump)", "conditions": "for sweating: AUC of activated sweat glands", "description": "(§1) Male Balb/c mice were used in the test.\nThe compound A was dissolved in physiological saline to a concentration of 0.625, 1.25, 2.5, 5.0, 10 or 20 mg/200 μl, and filled each pump (Alzet mini-osmotic pump 2001D, 8 μl/h, 1 day; DURECT Corporation) with about 200 μl portions It means, that is, each pump releases at a rate of 0.025, 0.05, 0.1, 0.2, 0.4 or 0.8 mg compound A/h, respectively. About 5 mm of dorsal epidermis of a mouse anesthetized with diethyl ether was incised, the osmotic pump already filled with the compound A was subcutaneously implanted, and then the skin was stitched. Secreted amounts of salivary and tear fluid and sweating were periodically measured from just before the implantation of pump until 32 hours after the administration. The ornithine decarboxylase activity was measured 10 hours after the implantation. […]\n(§2) The footpad of right hind paw of a mouse anesthetized with diethyl ether was wiped with absorbent cotton, and then 20 μl of each of 5 mg/ml iodine-ethanol solution and 50 mg/ml starch-mineral oil suspension was applied thereto. The number of black spots on footpad was counted and used as the number of activated sweat glands. In the case of the subcutaneous bolus administration test, the number of activated sweat glands 10 minutes after the administration of compound A was measured. In the case of the subcutaneous continuous administration, area under the number of activated sweat glands-versus-time curve (AUC) was calculated.\n(§3) All of the test results were expressed as fold increases of the reactions of the drug-administered group versus those of the vehicle-administered group, and comparison between the drug-administered groups and the vehicle-administered group was carried out using Dunnett's t-test. P<0.05 was considered significant. Results"}, "[2]": {"system": "sweat gland", "experiment": "Sweating (number of activated sweat glands on footpad) after subcutaneous bolus administration", "description": "as §1\n(§4) The compound A was dissolved in physiological saline to a concentration of 1, 3, 10, 30 or 100 mg/5 ml, and 5 ml/kg of the drug solution was administered under the dorsal skin. Secreted amounts of salivary and tear fluid were measured just before the administration of compound A and 10, 20, 30, 40 and 50 minutes after the administration. The sweating action was measured 10 minutes after the administration. Also, the growth acceleration action was measured 6 hours after the administration.\nas §4, with “Pilocarpine was dissolved” for “The compound A was dissolved”, “concentration of 0.03, 0.1, 0.3, 1, 3 or 10 mg/5 ml, or cevimeline to a concentration of 0.3, 1, 3,” for “concentration of 1, 3,”, “administration of pilocarpine or cevimeline and 10,” for “administration of compound A and 10,”\nas §2, §3"}, "[3]": {"system": "ornithine decarboxylase (ODC) activity of extra-orbital lacrimal gland", "experiment": "Ornithine decarboxylase activity of extra-orbital lacrimal gland, subcutaneous continuous administration", "conditions": "mice; for Glandular cell growth Lacrimal gland: ODC activity 10 hours after implantation", "description": "as §1\n(§5) The compound A was dissolved in physiological saline to a concentration of 0.625, 1.25, 2.5, 5.0, 10 or 20 mg/200 μl, and filled each pump (Alzet mini-osmotic pump 2001D, 8 μl/h, 1 day; DURECT Corporation) with about 200 μl portions It means, that is, each pump releases at a rate of 0.025, 0.05, 0.1, 0.2, 0.4 or 0.8 mg compound A/h, respectively. About 5 mm of dorsal epidermis of a mouse anesthetized with diethyl ether was incised, the osmotic pump already filled with the compound A was subcutaneously implanted, and then the skin was stitched. Secreted amounts of salivary and tear fluid and sweating were periodically measured from just before the implantation of pump until 32 hours after the administration. The ornithine decarboxylase activity was measured 10 hours after the implantation.\n(§6) Pilocarpine was dissolved in physiological saline to a concentration of 0.039, 0.078, 0.16 or 0.31 mg/200 μl, or cevimeline to a concentration of 0.16, 0.31, 0.63 or 1.3 mg/200 μl, and filled the osmotic pump (Alzet mini-osmotic pump 2001 D, 8 μl/h, 1 day; DURECT Corporation) with about 200 μl portions. It means, that is, each pump releases at a rate of 0.00156, 0.00312, 0.0064 or 0.0124 mg/h (pilocarpine) or 0.0064, 0.0124, 0.0252 or 0.05 mg/h (cevimeline). About 5 mm of dorsal epidermis of a mouse anesthetized with diethyl ether was incised, the osmotic pump already filled with pilocarpine or cevimeline was subcutaneously implanted, and then the skin was stitched. Secreted amounts of salivary and tear fluid and sweating were periodically measured from just before the implantation of pump until 32 hours after the administration. The ornithine decarboxylase activity was measured 10 hours after the implantation.\n(§7) Thus, it can be easily analogized that the ODC activity becomes a useful index of cell growth and function of the exocrine gland. Accordingly, the ability of each drug to activate glandular tissue was evaluated by measuring ODC activity of parotid salivary gland and extra-orbital lacrimal gland.\n(§8) The amount of ^14CO2 formed from L-^14C-ornithine was used as the index of ODC activity.\n(§9) A mouse anesthetized with diethyl ether was sacrificed by bleeding, and left and right parotid salivary glands and extra-orbital lacrimal glands were isolated. After removing the attached connective tissue and fat, the isolated glandular tissues homogenized in 1.5 ml of a homogenate buffer (25 mM Tris-HCl buffer (pH 7.4) containing 0.1 mM ethylenediaminetetraacetic acid, 0.4 mM pyridoxal phosphate, 5 mM dithiothreitol and 0.1% Brij 35®) using a Potter type homogenizer and then centrifuged at 4° C., 15,000 g for 30 minutes, and the supernatant was used as the enzyme fraction. Reaction of the enzyme and substrate was carried out by adding 100 μl of a substrate solution (the homogenate buffer containing 300 μM DL-ornithine and 5 μCi L-^14C-ornithine) to 900 μl of the enzyme liquid whose protein concentration had been adjusted to 2.5 mg/ml and incubating at 37° C. for 1 hour in a sealed tube, and the reaction was terminated by the addition of 100 μl of 2 M H2SO4. The ^14CO2 generated by the reaction was captured by 150 μl of 1 N NaOH soaked in a glass filter. Radioactivity of the ^14CO2 captured on the glass filter was detected using a liquid scintillation counter. The enzyme activity (pmol ^14CO2/mg protein/hour) was calculated from the measured results.\nas §3"}, "[4]": {"system": "ornithine decarboxylase (ODC) activity of parotid salivary gland", "experiment": "Ornithine decarboxylase activity of parotid salivary gland, subcutaneous continuous administration", "conditions": "mice; for Glandular cell growth Salivary gland: ODC activity 10 hours after implantation", "description": "as §1, §5, §6, §7, §8, §9, §3"}, "[5]": {"conditions": "male, Balb/c, mouse, in vivo, sc"}, "[6]": {"conditions": "s.c. osmotic pump 0.63 mg (0.0252 mg/h)"}, "[7]": {"conditions": "s.c. osmotic pump 1.25 (0.05 mg/h)"}, "[8]": {"conditions": "mice, s.c. continuous administration"}, "[9]": {"conditions": "s.c. osmotic pump 1.25 mg (0.05 mg/h)"}, "[10]": {"conditions": "s.c. osmotic pump 2.5 mg (0.1 mg/h)"}, "[11]": {"conditions": "s.c. osmotic pump 5 mg (0.2 mg/h)"}, "[12]": {"conditions": "s.c. osmotic pump 10 mg (0.4 mg/h)"}, "[13]": {"conditions": "s.c. osmotic pump 0.16 mg (0.0064 mg/h)"}, "[14]": {"conditions": "s.c. osmotic pump 0.31 mg (0.0124 mg/h)"}}}
{"smiles": "CC1OC2(CS1)CN1CCC2CC1", "note": "(stereo not shown) [cevimeline]", "values": [{"measurement": "dose at which sweating acceleration action was found", "setting": "[1]; [5]", "value": 1.25, "unit": "mg"}, {"measurement": "sweating acceleration dose relative to dose for secretion acceleration", "setting": "[1]; [5]", "value": 2, "unit": "times"}, {"measurement": "dose at which statistically significant sweating was found", "setting": "[2]; mice, s.c. bolus", "value": 10, "unit": "mg/kg"}, {"measurement": "sweating", "setting": "[2]; mice, s.c. bolus 3 mg/kg, 10 minutes after administration (Table 4)", "value": "1.5 ± 0.29 fold increase vs. the vehicle group"}, {"measurement": "sweating", "setting": "[2]; mice, s.c. bolus 10 mg/kg, 10 minutes after administration (Table 4)", "value": "2.5 ± 0.40 fold increase vs. the vehicle group"}, {"measurement": "sweating", "setting": "[2]; mice, s.c. bolus 30 mg/kg, 10 minutes after administration (Table 4)", "value": "3.1 ± 0.57 fold increase vs. the vehicle group"}, {"measurement": "Glandular cell growth Lacrimal gland", "setting": "[3]; [6]", "value": "1.4 ± 0.28 fold increase vs. the solvent group"}, {"measurement": "Glandular cell growth Lacrimal gland", "setting": "[3]; [7]", "value": "1.3 ± 0.70 fold increase vs. the solvent group"}, {"measurement": "glandular cell ODC activity acceleration action", "setting": "[4]; s.c. continuous administration", "value": "not confirmed even at 1.25 mg"}, {"measurement": "Glandular cell growth Salivary gland", "setting": "[4]; [6]", "value": "0.87 ± 0.05 fold increase vs. the solvent group"}, {"measurement": "Glandular cell growth Salivary gland", "setting": "[4]; [7]", "value": "0.45 ± 0.12 fold increase vs. the solvent group"}]}
{"smiles": "C=C1CC2(CCN(C)CC2)O[C@H]1C", "note": "[compound A, (−)-(S)-2,8-dimethyl-3-methylene-1-oxa-8-azaspiro[4.5]decane]", "values": [{"measurement": "dose at which sweating acceleration action was found", "setting": "[1]; [8]", "value": 20, "unit": "mg"}, {"measurement": "sweating acceleration dose relative to dose for secretion acceleration", "setting": "[1]; [8]", "value": 8, "unit": "times"}, {"measurement": "dose up to which sweating acceleration action was not found", "setting": "[1]; mice, s.c. continuous administration, throughout the test period", "value": 10, "unit": "mg"}, {"measurement": "sweating", "setting": "[1]; mice, s.c. osmotic pump 0.63 mg (0.025 mg/h)", "value": "0.85 ± 0.06 fold increase vs. the vehicle group"}, {"measurement": "sweating", "setting": "[1]; mice, s.c. osmotic pump 1.25 mg (0.05 mg/h)", "value": "0.84 ± 0.06 fold increase vs. the vehicle group"}, {"measurement": "sweating", "setting": "[1]; mice, s.c. osmotic pump 2.5 mg (0.1 mg/h)", "value": "0.89 ± 0.05 fold increase vs. the vehicle group"}, {"measurement": "sweating", "setting": "[1]; mice, s.c. osmotic pump 5 mg (0.2 mg/h)", "value": "0.88 ± 0.05 fold increase vs. the vehicle group"}, {"measurement": "sweating", "setting": "[1]; mice, s.c. osmotic pump 10 mg (0.4 mg/h)", "value": "0.90 ± 0.04 fold increase vs. the vehicle group"}, {"measurement": "sweating", "setting": "[1]; mice, s.c. osmotic pump 20 mg (0.8 mg/h)", "value": "1.7 ± 0.07 fold increase vs. the vehicle group"}, {"measurement": "dose at which a side effect was found", "setting": "[2]; male, Balb/c, mouse, in vivo, 10 min", "value": 30, "unit": "mg/kg"}, {"measurement": "dose at which statistically significant sweating was found", "setting": "[2]; mice, s.c. bolus", "value": 30, "unit": "mg/kg"}, {"measurement": "sweating dose relative to dose accelerating secretion of salivary and tear fluid", "setting": "[2]; mice, s.c. bolus", "value": 3, "unit": "times"}, {"measurement": "sweating", "setting": "[2]; mice, s.c. bolus 3 mg/kg, 10 minutes after administration", "value": "0.69 ± 0.19 fold increase vs. the vehicle group"}, {"measurement": "sweating", "setting": "[2]; mice, s.c. bolus 10 mg/kg, 10 minutes after administration", "value": "1.3 ± 0.20 fold increase vs. the vehicle group"}, {"measurement": "sweating", "setting": "[2]; mice, s.c. bolus 30 mg/kg, 10 minutes after administration", "value": "2.0 ± 0.19 fold increase vs. the vehicle group"}, {"measurement": "sweating", "setting": "[2]; mice, s.c. bolus 100 mg/kg, 10 minutes after administration", "value": "2.2 ± 0.17 fold increase vs. the vehicle group"}, {"measurement": "dose at which a side effect was not found", "setting": "[2]; mouse, bolus administration", "value": 10, "unit": "mg/kg"}, {"measurement": "Glandular cell growth Lacrimal gland", "setting": "[3]; [9]", "value": "3.3 ± 1.2 fold increase vs. the vehicle group"}, {"measurement": "Glandular cell growth Lacrimal gland", "setting": "[3]; [10]", "value": "6.7 ± 0.90 fold increase vs. the vehicle group"}, {"measurement": "Glandular cell growth Lacrimal gland", "setting": "[3]; [11]", "value": "9.2 ± 1.4 fold increase vs. the vehicle group"}, {"measurement": "Glandular cell growth Lacrimal gland", "setting": "[3]; [12]", "value": "7.1 ± 1.2 fold increase vs. the vehicle group"}, {"measurement": "Glandular cell growth Salivary gland", "setting": "[4]; [9]", "value": "1.56 ± 0.33 fold increase vs. the vehicle group"}, {"measurement": "Glandular cell growth Salivary gland", "setting": "[4]; [10]", "value": "6.9 ± 2.3 fold increase vs. the vehicle group"}, {"measurement": "Glandular cell growth Salivary gland", "setting": "[4]; [11]", "value": "9.6 ± 1.8 fold increase vs. the vehicle group"}, {"measurement": "Glandular cell growth Salivary gland", "setting": "[4]; [12]", "value": "9.8 ± 2.6 fold increase vs. the vehicle group"}]}
{"smiles": "CC[C@@H]1C(=O)OC[C@@H]1Cc1cncn1C", "note": "[pilocarpine]", "values": [{"measurement": "dose at which sweating acceleration action was found", "setting": "[1]; [5]", "value": 0.31, "unit": "mg"}, {"measurement": "dose at which statistically significant sweating was found", "setting": "[2]; mice, s.c. bolus", "value": 1, "unit": "mg/kg"}, {"measurement": "sweating", "setting": "[2]; mice, s.c. bolus 0.3 mg/kg, 10 minutes after administration", "value": "1.1 ± 0.16 fold increase vs. the vehicle group"}, {"measurement": "sweating", "setting": "[2]; mice, s.c. bolus 1 mg/kg, 10 minutes after administration", "value": "3.1 ± 0.32 fold increase vs. the vehicle group"}, {"measurement": "sweating", "setting": "[2]; mice, s.c. bolus 3 mg/kg, 10 minutes after administration (Table 3)", "value": "4.2 ± 0.29 fold increase vs. the vehicle group"}, {"measurement": "dose at which ODC activity increasing action of lacrimal gland cell was observed", "setting": "[3]; s.c. continuous administration", "value": 0.31, "unit": "mg"}, {"measurement": "Glandular cell growth Lacrimal gland", "setting": "[3]; [13]", "value": "1.4 ± 0.33 fold increase vs. vehicle group"}, {"measurement": "Glandular cell growth Lacrimal gland", "setting": "[3]; [14]", "value": "2.0 ± 0.28 fold increase vs. vehicle group"}, {"measurement": "Glandular cell growth Salivary gland", "setting": "[4]; [13]", "value": "0.42 ± 0.06 fold increase vs. vehicle group"}, {"measurement": "Glandular cell growth Salivary gland", "setting": "[4]; [14]", "value": "1.1 ± 0.20 fold increase vs. vehicle group"}]}
